Test results taken from PMC6497469 (Infection and Drug Resistance, 2019).
Values belong to the compound of their own block, whether it stands above or below them.

Legend:
PA0847 [1] = molecular target: T1, PA0847 (Pseudomonas aeruginosa, UniProt Q9I594); assay: titration of GTPγS to purified PAS-GGDEF; assay type: binding
T1 sequence (Q9I594 440-735 limits assumed): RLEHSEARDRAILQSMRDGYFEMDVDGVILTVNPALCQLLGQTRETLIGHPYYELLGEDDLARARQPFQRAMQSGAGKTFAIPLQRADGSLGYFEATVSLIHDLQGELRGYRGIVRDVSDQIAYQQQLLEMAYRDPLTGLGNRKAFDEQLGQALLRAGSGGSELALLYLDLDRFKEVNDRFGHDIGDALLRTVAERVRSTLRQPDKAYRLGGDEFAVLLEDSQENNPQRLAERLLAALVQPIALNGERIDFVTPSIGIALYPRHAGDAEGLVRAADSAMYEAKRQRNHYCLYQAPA

PA0847 [2] = molecular target: T1, PA0847; assay: binding of c-di-GMP to purified PAS-GGDEF
[3] = molecular target: PA0847 PAS-GGDEF dual domains (Pseudomonas aeruginosa PAO1); assay: SEC

Kd (PA0847 [1]): 15.3 ± 1.3 µM
Compound: Nc1nc2c(ncn2[C@@H]2O[C@H](COP(=O)(O)OP(=O)(O)OP(O)(O)=S)[C@@H](O)[C@H]2O)c(=O)[nH]1 [GTPγS]

Kd (PA0847 [2]): ~59 µM
Compound: Nc1nc2c(ncn2[C@@H]2O[C@@H]3CO[P@](=O)(O)O[C@H]4[C@@H](O)[C@H](n5cnc6c(=O)[nH]c(N)nc65)O[C@@H]4CO[P@](=O)(O)O[C@H]3[C@H]2O)c(=O)[nH]1 [c-di-GMP]

Compound: PA0847 PAS-GGDEF dual domains (domain or fragment)
stoichiometry N [3]: 2
